Source: the NIST ThermoML archive (doi:10.1016/j.jct.2018.08.005)

Assay: molar heat capacity at constant pressure; xn = mol fraction of the nth substance listed
Details: 100 kPa, Liquid, DSC

CCOC(F)(C(F)(F)C(F)(F)C(F)(F)F)C(F)(C(F)(F)F)C(F)(F)F (stereo not given) [2-trifluoromethyl-3-ethoxydodecafluorohexane] + CC(C)OC(C)C
molar heat capacity at constant pressure [J/K/mol]
Details	x1 = 0.25	x1 = 0.375	x1 = 0.5	x1 = 0.625	x1 = 0.75	x1 = 1
290.5 K	277.26	310.54	342.56	375.58	407.39	–
295.44 K	279.61	312.95	345.14	378.55	410.41	–
297.91 K	–	–	–	–	–	466.29
300.38 K	281.77	315.36	347.98	381.52	413.77	–
305.32 K	284.47	317.99	350.3	384.2	416.46	–
307.79 K	–	–	–	–	–	472.92
310.26 K	287.71	320.4	353.14	387.17	419.82	–
315.2 K	290.42	322.81	355.98	390.14	422.85	–
317.66 K	–	–	–	–	–	479.54
320.13 K	293.12	325.66	358.82	393.11	425.87	–
325.07 K	295.64	328.29	361.66	396.08	428.9	–
327.54 K	–	–	–	–	–	486.58
330.01 K	298.16	330.92	364.5	399.35	432.26	–
334.95 K	300.69	333.77	367.08	402.32	434.61	–
337.42 K	–	–	–	–	–	494.03
339.89 K	303.21	336.4	369.66	405.29	437.97	–
347.29 K	–	–	–	–	–	500.66
357.17 K	–	–	–	–	–	508.53
367.05 K	–	–	–	–	–	517.23
376.92 K	–	–	–	–	–	523.85
386.8 K	–	–	–	–	–	531.72
